# Measured values taken from US5476841A, “Inhibitors of herpes viral ribonucleotide reductase” (Bio-Mega/Boehringer Ingelheim Research Inc., priority 1994, dated 1995).
# Where a SMILES comes first, the peptide text is derived from it. [ ]: non-standard residue; d: D form. The star is where a group is joined. Asp(3,3-(CH2)4) = N[C@H](C(=O)O)C1(C(=O)O)CCCC1; Dibenzylacetyl = O=C(C(Cc1ccccc1)Cc1ccccc1)*; Leu(γ-Me)ol = CC(C)(C)C[C@@H](CO)N*; tBuAla = CC(C)(C)C[C@H](N)C(=O)O; Tle = CC(C)(C)[C@H](N)C(=O)O; NMeV = CN[C@H](C(=O)O)C(C)C; X1 = CC[C@@H](N*)C(C)(C)C; Pyrrolidide = C1CCN(*)C1; NHCH2tBu = CC(C)(C)CN*
# How the values were obtained:
# [1] = test system: HSV-2; assay: Inhibition of Herpes Simplex virus (HSV-2) replication in cell culture; type: cell-based; conditions: BHK-21/C13 cells, serum starved, HSV-2 strain HG-52, 0.02 PFU/cell, 29 h incubation; read-out: EC50, concentration effecting a 50% inhibition of HSV-2 virus replication
# Procedure: Inhibition of Herpes Simplex virus (HSV-2) Replication in Cell Culture
# BHK-21/C13 cells (ATCC CCL 10) are incubated for two days in 150 cm^2 T-flasks (1.5×10^6 cells/flask) with alpha-MEM medium (Gibco Canada Inc., Burlington, Ontario, Canada) supplemented with 8% (v/v) fetal bovine serum (FBS, Gibco Canada Inc.). The cells are trypsinized and then transferred to fresh media in a 24 well plate to give 2.5×10^5 cells in 750 μL of media per well. The cells are incubated at 37° for a period of 6 h to allow them to adhere to the plate. Thereafter, the cells are washed once with 500 μL of alpha-MEM supplemented with 0.5% (v/v) FBS and then incubated with 750 μL of the same media (low serum) for 3 days. After this period of serum starvation, the low serum medium is removed and the cells are incubated in 500 μL of BBMT for 2 to 3 hours. {BBMT medium is described by P. Brazeau et al., Proc. Natl. Acad. Sci. USA, 79, 7909 (1982).} Thereafter, the cells are infected with HSV-2 (multiplicity of infection=0.02 PFU/cell) in 100 μL of BBMT medium. (Note: The HSV-2 used was strain HG-52, see Y. Langelier and G. Buttin, J. Gen. Virol., 57, 21 (1981); the virus was stored at -80°.) Following 1 h of virus adsorption at 37°, the media is removed and the cells are washed with BBMT (3×250 μL). The cells in each well are incubated with or without (control) appropriate concentrations of the test agent dissolved in 200 μL of BBMT medium. After 29 h of incubation at 37°, the infected cells are harvested by first freezing the plate at -80°, followed by thawing. The cells in each well are scraped off the surface of the well with the help of the melting ice fragments. After complete thawing, the cell suspensions are collected and each well is rinsed with 150 μL of BBMT medium. The viral sample (suspension plus washing) is sonicated gently for 4 min at 4°. Cell debris are removed by centrifugation (1000 times gravity for 10 minutes at 4°). The supernatant is collected and stored at -80° until determination of viral titer.
# Viral titration was performed by a modification of the colorimetric assay method of M. Langlois et al., Journal of Biological Standardization, 14, 201 (1986), and which is described in detail by R. Deziel and Y. Guindon, supra.
# Accordingly, the percentage of virus growth inhibition can be determined for the various concentrations of the test agent, and the concentration of the test agent (i.e. the peptide of formula 1) effecting a 50% inhibition of virus replication, i.e. the EC50, can be calculated.
# [2] = target: T1, HSV-1 ribonucleotide reductase (Human herpesvirus 1, UniProt P08543); assay: Inhibition of Herpes Simplex virus (HSV-1) ribonucleotide reductase; type: biochemical; conditions: partially purified enzyme from HSV-1 strain F infected BHK-21/C13 cells; mean of four assays; read-out: IC50, concentration causing a 50% reduction of the HSV-1 ribonucleotide reductase activity
# T1 construct: obtained from quiescent BHK-21/C13 cells infected with strain F HSV-1 virus; made in house; host or cells: quiescent BHK-21/C13 cells infected with HSV-1 strain F (virus-encoded enzyme, partially purified)
# Description: Inhibition of Herpes Simplex virus (HSV-1) Ribonucleotide Reductase
# HSV-1 ribonucleotide reductase (partially purified) was obtained from quiescent BHK-21/C13 cells infected with strain F HSV-1 virus at 10 plaque forming units/cell as described by E. A. Cohen et al., J. Gen. Virol., 66, 733 (1985).
# The assay described by P. Gaudreau et al., J. Biol. Chem., 262, 12413 (1987), is used to evaluate the capability of the compounds of this invention to inhibit HSV-1 ribonucleotide reductase activity. Results are expresed as the concentration of the compound producing 50% of the maximal inhibition (IC50) of enzyme activity. The number of units of the enzyme preparation used in each assay was constant, based on the specific activity of the enzyme preparation. The results are relative to the activity obtained in control experiments without the test compound and represent the mean of four assays that varied less than 10% with each other.
# T1 sequence (P08543 whole entry): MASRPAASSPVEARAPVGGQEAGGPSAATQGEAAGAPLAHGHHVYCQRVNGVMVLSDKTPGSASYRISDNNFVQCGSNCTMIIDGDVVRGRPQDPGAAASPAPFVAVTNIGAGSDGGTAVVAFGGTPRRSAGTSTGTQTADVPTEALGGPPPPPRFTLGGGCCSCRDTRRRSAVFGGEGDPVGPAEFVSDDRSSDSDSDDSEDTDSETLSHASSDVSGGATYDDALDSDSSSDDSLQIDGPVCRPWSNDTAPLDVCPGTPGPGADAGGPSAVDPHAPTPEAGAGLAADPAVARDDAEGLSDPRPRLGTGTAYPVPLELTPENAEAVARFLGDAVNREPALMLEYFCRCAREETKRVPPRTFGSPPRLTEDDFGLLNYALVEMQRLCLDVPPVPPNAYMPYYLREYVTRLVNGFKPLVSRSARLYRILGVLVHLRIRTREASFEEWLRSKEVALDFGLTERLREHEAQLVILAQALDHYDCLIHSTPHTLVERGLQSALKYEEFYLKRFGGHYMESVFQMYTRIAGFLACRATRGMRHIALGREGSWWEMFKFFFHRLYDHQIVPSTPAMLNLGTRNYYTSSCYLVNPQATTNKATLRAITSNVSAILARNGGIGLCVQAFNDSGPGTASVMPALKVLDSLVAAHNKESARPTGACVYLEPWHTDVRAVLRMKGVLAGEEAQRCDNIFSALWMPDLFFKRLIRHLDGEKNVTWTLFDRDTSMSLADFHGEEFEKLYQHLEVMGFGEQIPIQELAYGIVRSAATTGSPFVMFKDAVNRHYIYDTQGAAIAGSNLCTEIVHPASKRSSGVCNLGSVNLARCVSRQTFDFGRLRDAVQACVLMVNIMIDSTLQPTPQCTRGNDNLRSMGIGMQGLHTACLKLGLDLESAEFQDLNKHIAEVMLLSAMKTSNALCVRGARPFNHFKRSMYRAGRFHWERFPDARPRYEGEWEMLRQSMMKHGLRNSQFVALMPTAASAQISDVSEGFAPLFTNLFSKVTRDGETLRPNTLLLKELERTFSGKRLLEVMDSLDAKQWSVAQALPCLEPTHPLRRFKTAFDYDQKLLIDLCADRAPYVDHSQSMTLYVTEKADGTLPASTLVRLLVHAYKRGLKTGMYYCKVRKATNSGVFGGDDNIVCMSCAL
SMILES,EC50 [1] [µM],IC50 [2] [µM]
"CC[C@@H](NC(=O)[C@@H](NC(=O)[C@H](CC(=O)N1CCCC1)NC(=O)[C@@H](NC(=O)[C@H](C(C)C)N(C)C(=O)C(Cc1ccccc1)Cc1ccccc1)C(C)(C)C)C1(C(=O)O)CCCC1)C(C)(C)C [(PhCH2)2 CHC (O)--(N-Me)-Val-Tbg-Asp(pyrrolidino)-Asp(cyPn)-NH--(R)--CH(C2 H5)C(CH3)3] (Dibenzylacetyl-[NMeV][Tle]D(Pyrrolidide)[Asp(3,3-(CH2)4)]-X1)",< 2,–
"CC(C)[C@@H](C(=O)N[C@H](C(=O)N[C@@H](CC(=O)N1CCCC1)C(=O)N[C@H](C(=O)N[C@@H](CC(C)(C)C)C(=O)O)C1(C(=O)O)CCCC1)C(C)(C)C)N(C)C(=O)C(Cc1ccccc1)Cc1ccccc1 [(PhCH2)2 CHC(O)--(N-Me)-Val-Tbg-Asp (pyrrolidino)-Asp(cyPn)-γMeLeu-OH] (Dibenzylacetyl-[NMeV][Tle]D(Pyrrolidide)[Asp(3,3-(CH2)4)][tBuAla]-OH)",6,–
"CC(C)[C@@H](C(=O)N[C@H](C(=O)N[C@@H](CC(=O)N1CCCC1)C(=O)N[C@H](C(=O)NCC(C)(C)C)C1(C(=O)O)CCCC1)C(C)(C)C)N(C)C(=O)C(Cc1ccccc1)Cc1ccccc1 [(PhCH2)2 CHC(O)--(N-Me)-Val-Tbg-Asp(pyrrolidino)-Asp(cyPn)-NHCH2 C(CH3)3] (Dibenzylacetyl-[NMeV][Tle]D(Pyrrolidide)[Asp(3,3-(CH2)4)]-NHCH2tBu)",1.6,–
"CC(C)[C@@H](C(=O)N[C@H](C(=O)N[C@@H](CC(=O)N1CCCC1)C(=O)N[C@H](C(=O)N[C@H](CO)CC(C)(C)C)C1(C(=O)O)CCCC1)C(C)(C)C)N(C)C(=O)C(Cc1ccccc1)Cc1ccccc1 [Example 3, (PhCH2)2 CHC(O)--(N-Me)-Val-Tbg-Asp(pyrrolidino)-Asp(cyPn)-γMeLeucinol] (Dibenzylacetyl-[NMeV][Tle]D(Pyrrolidide)[Asp(3,3-(CH2)4)]-{Leu(γ-Me)ol})",3,0.17
